Tests used:
[1] = detection of radiolabelled olanzapine in saliva; format: in vivo, patients
Description: For example, in the treatment of adult humans, dosages of from 5 to 25 mg per day may be used. A once a day dosage is normally sufficient. For treatment of insomnia, a dose range of from 5 to 100 mg, is suitable, while a dosage of from 5 to 25 mg per day is preferred.

5-HT1C receptor = target: T1, 5-HT1C receptor (Homo sapiens, UniProt P28335); experiment: pharmacological studies, 5-HT1C receptor activity
T1 sequence (P28335 33-458): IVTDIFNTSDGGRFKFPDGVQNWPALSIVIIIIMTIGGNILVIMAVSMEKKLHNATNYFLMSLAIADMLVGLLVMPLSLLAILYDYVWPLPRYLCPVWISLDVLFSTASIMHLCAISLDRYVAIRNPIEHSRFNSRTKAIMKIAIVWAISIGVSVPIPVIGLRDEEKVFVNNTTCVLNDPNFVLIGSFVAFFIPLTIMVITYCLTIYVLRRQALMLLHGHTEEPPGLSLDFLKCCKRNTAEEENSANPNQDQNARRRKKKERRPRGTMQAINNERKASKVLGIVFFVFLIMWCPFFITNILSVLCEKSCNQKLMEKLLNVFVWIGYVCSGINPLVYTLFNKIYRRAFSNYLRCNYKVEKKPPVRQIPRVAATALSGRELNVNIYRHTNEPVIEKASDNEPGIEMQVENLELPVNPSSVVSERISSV

Cc1cc2c(s1)Nc1ccccc1N=C2N1CCN(C)CC1 [olanzapine, 2-methyl-4-(4-methyl-l-piperazinyl)-10H-thieno[2,3-b][1,5] benzodiazepine]
detection in the saliva [1]: can be detected in the saliva
activity at the 5-HT1C receptor (5-HT1C receptor): active

— patent publication EP0795330A1, “Medicament for the treatment of insomnia” (ELI LILLY AND COMPANY, priority 1996, dated 1997)
